“Also recorded” adds a separate entry of the source.
What was measured:
DBA/1 mice = experiment: Therapeutic CIA study AA#80 (male mice), disease score; type: in vivo, mouse; conditions: male DBA/1 mice; 20 mg/kg IP 3× weekly, 8 doses from Day 24; vs control groups (FIG. 8); 20 mg/kg
Description: DBA/1 mice (10 per group) aged 7-9 weeks were used for the CIA model. Mice from several vendors (Jackson Laboratories, Harlan Laboratories, and Taconic Farms) were tested and it was determined that Taconic mice are most appropriate for the CIA studies. Taconic mice develop more consistent and severe disease symptoms and show continued disease progression, while mice from the other vendors often show stable, less severe disease, even in the absence of treatment. female (F) mice in AA#79 and male (M) mice in AA#80, were tested to determine which gender to use in future experiments.
On the day before the study is initiated, the hair on the right flank of each mouse was removed using an electric clipper. A metal identification tag was placed on the right ear of each mouse. On Day 0, mice were immunized with 100 μL of chicken collagen type II/Complete Freund's Adjuvant (CII/CFA) emulsion in the right flank. On Day 20, the hair on the left flank of each mouse was removed using an electric clipper, and on Day 21, mice were immunized with 100 μL of chicken collagen type II/Incomplete Freund's Adjuvant (CII/IFA) emulsion in the left flank. Pre-filled syringes of CII/CFA and CII/IFA emulsion purchased from Hooke Laboratories were used to ensure consistent dosing with and potency of the immunogen.
Early arthritis symptoms, such as erythema and mild swelling, usually appear on Day 21, and on Day 28, more severe symptoms such as swelling in many digits and inflammation extending to the tarsal joint are typically present. Each limb is evaluated for severity of arthritis symptoms three times a week using a widely accepted arthritis severity score system, shown in Table 2. The scores from each of the 4 limbs are summed to yield the disease score of each mouse. […]
Treatment was initiated when the average disease score for the study animals was greater than four. This corresponded to Day 29 in AA#79 and Day 24 in […]. By waiting until animals are symptomatic, it was ensured that the model is performed in a therapeutic rather than prophylactic mode.
B7-H4-Ig, RPA110010, and murine B7-H4-Ig proteins were administered by intraperitoneal (IP) injection 3 times a week for a total of 8 doses. RPA110010 is an extracellular domain variant of B7-H4-Ig, SEQ ID NO:126. Control murine and human IgG proteins were given once a week for a total of 3 doses. […] All proteins were diluted to the desired concentration (500 μg in 500 μL, or 1 mg/mL) with sterile PBS immediately before injection. Vehicle control mice receive Amplimmune formulation buffer diluted 1:10 in PBS, with an injection volume of 500 μL.

[1] = test system: serum levels of 58 analytes; experiment: Serum biomarker analysis, quantitative immunoassay multi-analyte profiling (Rules-Based Medicine RodentMAP v2.9), AA#80; type: in vivo, mouse
Description: In AA#80, serum samples were collected on Day 27, Day 34, Day 41 and Day 55 via the submandibular vein. Approximately 200 μL of blood per mouse was collected in Microtainer® serum separator tubes. Serum was removed following centrifugation and stored at <−65° C. until analysis.
Selected serum samples were sent to Rules-Based Medicine (Austin, Tex.) for quantitative immunoassay multi-analyte profiling of serum samples, with the goal of identifying biomarkers that could be used to monitor disease progression and response to B7-H4-Ig treatment. Day 27, Day 34, and Day 41 sera from the three representative mice in the B7-H4-Ig group (tag #3332, 3334, and 3338) and three representative mice in the Synagis® group (tag #3324, 3329, and 3330) were analyzed for levels of 58 analytes using the RodentMAP v2.9 Testing Service.
Data from the Rules-Based Medicine analysis was analyzed using Microsoft Excel and GraphPad Prism software. T-tests were performed to compare the levels of each analyte in the B7-H4-Ig versus Synagis® treated samples. No correction was made for multiple comparisons. Additionally, correlation coefficients were calculated for each analyte versus disease score.

Substance: B7-H4-Ig: B7-H4 extracellular domain fused to Ig Fc; bare label is the human protein in Example 3, murine protein in Examples 1, 2, 5, 7-11
- disease scores, AA#80 (DBA/1 mice): lower disease scores than mice in the control groups; also recorded: prolonged period of stable disease scores
- serum IL-6 levels, difference between Synagis and B7-H4-Ig groups ([1]; AA#80 serum (FIG. 11)): did not reach statistical significance
- serum SAP levels ([1]; B7-H4-Ig vs Synagis treated groups): not significantly different
- serum MIP-2 levels ([1]; Day 41, vs Synagis treated mice (FIG. 15)): significantly lower
- serum ET-1 levels ([1]; Day 41 and overall, vs Synagis treated mice (FIG. 10)): significantly lower
- serum MCP-1 levels ([1]; Day 41 and overall, vs Synagis treated mice (FIG. 12)): significantly lower
- serum MCP-3 levels ([1]; Day 41 and overall, vs Synagis treated mice (FIG. 14)): significantly lower
- serum samples with TNF-α levels above the limit of detection ([1]; all samples (Day 27, 34, 41) (FIG. 16)): none

Source: US9011853B2, “B7-H4 fusion proteins and methods of use thereof” (Amplimmune, Inc., priority 2009, dated 2015)
